42 compounds from US10023593B2, “ALK kinase inhibitor, and preparation method and uses thereof” (BEIJING PEARL BIOTECHNOLOGY LIMITED LIABILITY COMPANY, priority 2014, dated 2018) can be followed below.

pIC50: −log10 of the molar value.

This assay concerns NCI-H2228 cell line. The assay is described as follows: CellTiter-Glo cell proliferation inhibition on NCI-H2228 cell line. Conditions: Homo sapiens, NCI-H2228, 96 h, NCI-H2228 cells, 5000 cells/well, 4 days drug treatment. Type of assay: cell-based. The procedure:
3. Cell Proliferation Inhibitory Activities of the Compounds of the Present Invention on NCI-H2228 Cell Line
? experimental method ? CellTiter-Glo® Luminescent Cell Viability Assay kit from Promega company was used to detect cell proliferation inhibitory activities of the compounds on NCI-H2228 cell line.
? instrument ? Envision 2104 plate reader from PerKinElmer company; Vi-Cell XR cell counter from Beckman Counter company; MCO-18AIC CO2 incubator from SANYO company.
? experiment material ? CellTiter-Glo® Luminescent Cell Viability Assay Kit (Promega company, catalog No. G7573); NCI-H2228 cell line (ATCC, catalog No. CRL-5935); RPMI-1640 medium (HyClone company, catalog No. SH30809.01B); fetal bovine serum (FBS) (Gibco company, catalog No. 10099-141); trypsin (Trypsin) (Gibco company, catalog No. 25200-072); PBS (HyClone company, catalog No. SH30256.01B); 96 wells cell culture plate (Corning company, catalog No. 3610); DMSO (AMRESCO company, catalog No. 0231); 96 wells plates (for diluting compounds) (CITOTEST company, catalog No. Ref36020096D);
? experimental condition ? NCI-H2228 cells in exponential growth phase were collected and treated with trypsin (Trypsin), and viable cells were counted by Vi-Cell XR cell counter. Cell suspension was adjusted to 62500 cells/ml with culture medium (RPMI-1640+10% FBS). 80 μl cell suspension was added into each well of 96 wells cell culture plate so that the final cell number of NCI-H2228 cells was 5000 cells/well. The cells were cultivated in an incubator with an atmosphere of 37° C., 5% CO2 and 95% humidity for 2 hours and then each well was added with 20 μl compounds in RPMI-1640 medium solution (the final concentration of DMSO was 0.5%). 4 days after drug treatment, each well was added with 50 μl CellTiter-Glo solution which was previously thawed and equilibrated to room temperature, and mixed for 2 minutes with microplate shaker. After placing at room temperature for 10 minutes, luminescence value was measured by PerkinElmer Envision 2104 plate reader and the data was analyzed.
? tested samples ? Compounds of the examples.
? data analysis ? Luminescence value of DMSO solvent control (Vvehicle control, which is the mean luminescence value from DMSO solvent control group)
Tested luminescence value (Vsample, which is the luminescence value from given concentration of compounds group) Inhibition rate (%)=(1−Vsample/Vvehicle control)×100
? data processing ? IC50 of compounds was calculated by using XLfit program in Excel.
For orientation: ATP-based viability assays read luminescence as a measure of living cells.
In general, pIC50 refers to −log10 of the IC50, conventionally taken in molar units. High values mean a small IC50, low ones a large IC50. As to `Cc1cc(Nc2ncc(Cl)c(Nc3cn(C)nc3S(=O)(=O)CC(C)C)n2)c(OC2CC2)cc1C1CCCN(CCO)C1` (stereo not drawn) [Final product 140], the pIC50 is 6.98.

Consider `Cc1cc(Nc2ncc(Cl)c(Nc3cn(C)nc3S(=O)(=O)C3CCC3)n2)c(OC(C)C)cc1C1CCN(C)CC1` [Final product 86], for which the pIC50 was 6.92.

`Cc1cc(Nc2ncc(Cl)c(Nc3cn(C)nc3S(=O)(=O)CC(C)C)n2)c(OC2CC2)cc1C1CCCN(C)C1` (stereo not drawn) [Final product 61] showed a pIC50 of 7.07.

The compound `Cc1cc(Nc2ncc(Cl)c(Nc3cn(C)nc3S(=O)(=O)CC(C)C)n2)c(OC2CC2)cc1C1CC(C)N(C)C(C)C1` (stereo not drawn) [Final product 96] had a pIC50 of 7.07.

`Cc1cc(Nc2ncc(Cl)c(Nc3cn(C)nc3S(=O)(=O)C(C)C)n2)c(OC2CC2)cc1C1CCCN(CCO)C1` (stereo not drawn) [Final product 139] had a pIC50 of 7.05.

In the case of `CCN1CCC(c2cc(OC3CCC3)c(Nc3ncc(Cl)c(Nc4cn(C)nc4S(=O)(=O)C(C)C)n3)cc2C)CC1` [Final product 122], the pIC50 is 7.10.

In turn, `Cc1cc(Nc2ncc(Cl)c(Nc3cn(C)nc3S(=O)(=O)C(C)C)n2)c(OC2CC2)cc1C1CCS(=O)(=O)CC1` [Final product 110] showed a pIC50 of 7.01.

`COCC1CC(c2cc(OC(C)C)c(Nc3ncc(Cl)c(Nc4cn(C)nc4S(=O)(=O)C(C)C)n3)cc2C)CCN1C` (stereo not drawn) [Final product 78] gave a pIC50 of 6.89.

For the compound `Cc1cc(Nc2ncc(Cl)c(Nc3cn(C)nc3S(=O)(=O)C(C)C)n2)c(OC2CC2)cc1C1CCN(C)C(C(=O)N(C)C)C1` (stereo not drawn) [Final product 101], the pIC50 was 7.59.

In turn, `Cc1cc(Nc2ncc(Cl)c(Nc3cn(C)nc3S(=O)(=O)C(C)C)n2)c(OC2CC2)cc1[C@H]1CC[C@@H](NCCN(C)C)CC1` [Final product 199] had a pIC50 of 6.65.

Consider `Cc1cc(Nc2ncc(Cl)c(Nc3cn(C)nc3S(=O)(=O)C(C)C)n2)c(OC(C)C)cc1C1CCC(N(C)C)CC1` (stereo not drawn) [Final product 183], for which the pIC50 is 6.76. The pIC50 values of the last two compounds are within 0.2 log units of each other.

The compound `CC(C)Oc1cc(C2CCN(C)CC2)c(C2CC2)cc1Nc1ncc(Cl)c(Nc2cn(C)nc2S(=O)(=O)C(C)C)n1` [Final product 68] had a pIC50 of 6.82.

With `Cc1cc(Nc2ncc(Cl)c(Nc3cn(C)nc3S(=O)(=O)CC(C)C)n2)c(OC2CC2)cc1[C@H]1CC[C@H](N(C)C)CC1` [Final product 176, 5-chloro-N^2-(2-cyclopropoxy4-(4-(dimethylamino)cyclohexyl)-5-methylphenyl)-N^4-(3-(isobutylsulfonyl)-1-methyl-1H-pyrazol-4-yl) pyrimidin-2,4-diamine], the pIC50 is 7.04.

Compound `CCCc1cc(Nc2ncc(Cl)c(Nc3cn(C)nc3S(=O)(=O)C(C)C)n2)c(OC(C)C)cc1C1CCN(C)CC1` [Final product 69] showed a negative logarithm of the IC50 (pIC50) of 6.75. This pIC50 is 0.29 log units lower than that of the compound before.

As to `CCCOc1cc(C2CCN(C)CC2)c(C)cc1Nc1ncc(Cl)c(Nc2cn(C)nc2S(=O)(=O)C(C)C)n1` [Final product 66], the pIC50 was 7.23.

In turn, `Cc1cc(Nc2ncc(Cl)c(Nc3cn(C)nc3S(=O)(=O)CC(C)C)n2)c(OC2CC2)cc1[C@H]1CC[C@@H](N(C)C)CC1` [Final product 175, 5-chloro-N^2-(2-cyclopropoxy4-(4-(dimethylamino)cyclohexyl)-5-methylphenyl)-N^4-(3-(isobutylsulfonyl)-1-methyl-1H-pyrazol-4-yl) pyrimidin-2,4-diamine] gave a pIC50 of 6.59.

The compound `Cc1cc(Nc2ncc(Cl)c(Nc3cn(C)nc3S(=O)(=O)C(C)C)n2)c(OC2CC2)cc1C1CCCN(C)CC1` (stereo not drawn) [Final product 106] had a negative-log IC50 (pIC50) of 7.47.

The compound `Cc1cc(Nc2ncc(Cl)c(Nc3cn(C)nc3S(=O)(=O)C(C)C)n2)c(OC2CC2)cc1C1CC2CN(C)CC(C1)O2` (stereo not drawn) [Final product 109] had a pIC50 of 6.96.

In turn, `Cc1cc(Nc2ncc(Cl)c(Nc3cn(C)nc3S(=O)(=O)C(C)C)n2)c(OC2CC2)cc1C1CC2COCC(C1)N2C` (stereo not drawn) [Final product 74] showed a pIC50 of 7.72.

Regarding `CCN(CC)[C@H]1CC[C@@H](c2cc(OC3CC3)c(Nc3ncc(Cl)c(Nc4cn(C)nc4S(=O)(=O)CC(C)C)n3)cc2C)CC1` [Final product 177], the pIC50 was 7.14.

With `Cc1cc(Nc2ncc(Cl)c(Nc3cn(C)nc3S(=O)(=O)C(C)C)n2)c(OC2CCC2)cc1C1CCN(C(C)(C)CO)CC1` [Final product 153], the pIC50 is 7.22.

Turning to `Cc1cc(Nc2ncc(Cl)c(Nc3cn(C)nc3S(=O)(=O)C(C)C)n2)c(OC2CC2)cc1C1CCN(C)CC1Cl` (stereo not drawn) [Final product 89], the pIC50 is 6.97.

Turning to `COCC(C)(C)N1CCC(c2cc(OC3CC3)c(Nc3ncc(Cl)c(Nc4cn(C)nc4S(=O)(=O)C(C)C)n3)cc2C)CC1` [Final product 84], the pIC50 is 7.34.

Compound `Cc1cc(Nc2ncc(Cl)c(Nc3cn(C)nc3S(=O)(=O)C(C)C)n2)c(OC2CC2)cc1C1CCCCN1C` (stereo not drawn) [Final product 102] gave a pIC50 of 6.99.

On to `Cc1cc(Nc2ncc(Cl)c(Nc3cn(C)nc3S(=O)(=O)C(C)C)n2)c(OC2CC2)cc1C1CCCN(C(C)(C)CO)C1` (stereo not drawn) [Final product 148], for which the pIC50 is 7.36.

`Cc1cc(Nc2ncc(Cl)c(Nc3cn(C)nc3S(=O)(=O)C(C)C)n2)c(OC(C)C)cc1[C@H]1CC[C@@H](NC2CC2)CC1` [Final product 185] had a negative-log IC50 (pIC50) of 6.53.

`Cc1cc(Nc2ncc(Cl)c(Nc3cn(C)nc3S(=O)(=O)C(C)C)n2)c(OC(C)C)cc1C1CCCN(C(C)C)C1` (stereo not drawn) [Final product 128]: the pIC50 is 6.89.

Regarding `Cc1cc(Nc2ncc(Cl)c(Nc3cn(C)nc3S(=O)(=O)C(C)C)n2)c(OC2CC2)cc1[C@H]1CC[C@@H](NC(C)C)CC1` [Final product 197], the pIC50 was 7.14.

Turning to `CCOc1cc(C2CCCN(C(C)(C)CO)C2)c(C)cc1Nc1ncc(Cl)c(Nc2cn(C)nc2S(=O)(=O)C(C)C)n1` (stereo not drawn) [Final product 151], the pIC50 is 7.15.

Turning to `Cc1cc(Nc2ncc(Cl)c(Nc3cn(C)nc3S(=O)(=O)CC(C)C)n2)c(OC2CC2)cc1C1CCN(C)CC1C` (stereo not drawn) [Final product 91], the pIC50 was 7.12.

`Cc1cc(Nc2ncc(Cl)c(Nc3cn(C)nc3S(=O)(=O)C(C)C)n2)c(OC(C)C)cc1C1CN(CCO)C1` [Final product 134] gave a pIC50 of 6.87.

Take `Cc1cc(Nc2ncc(Cl)c(Nc3cn(C)nc3S(=O)(=O)C(C)C)n2)c(OC(C)C)cc1C1CCCN(CCO)C1` (stereo not drawn) [Final product 141]: the pIC50 was 6.83.

Regarding `CCOc1cc(C2CCN(C)CC2)c(C)cc1Nc1ncc(Cl)c(Nc2cn(C)nc2S(=O)(=O)C(C)C)n1` [Final product 65], the pIC50 was 7.42.

As to `CCN1CCCC(c2cc(OC3CC3)c(Nc3ncc(Cl)c(Nc4cn(C)nc4S(=O)(=O)C(C)C)n3)cc2C)C1` (stereo not drawn) [Final product 120], the pIC50 is 7.03.

`Cc1cc(Nc2ncc(Cl)c(Nc3cn(C)nc3S(=O)(=O)CC(C)C)n2)c(OC2CC2)cc1[C@H]1CC[C@@H](NC(C)C)CC1` [Final product 181] gave a pIC50 of 6.97. The pIC50 values of the last two compounds are within 0.2 log units of each other.

As for `CCN1CCCC(c2cc(OC(C)C)c(Nc3ncc(Cl)c(Nc4cn(C)nc4S(=O)(=O)C(C)C)n3)cc2C)C1` (stereo not drawn) [Final product 119], the pIC50 was 6.71. This pIC50 is 0.26 log units lower than that of the compound before.

For the compound `Cc1cc(Nc2ncc(Cl)c(Nc3cn(C)nc3S(=O)(=O)C(C)C)n2)c(OC2CC2)cc1C1CCN(C(C)(C)CO)CC1` [Final product 147, 2-(4-(4-(5-chloro-4-(3-(isopropylsulfonyl)-1-methyl-1H-pyrazol-4-amino)pyrimidin-2-amino)-5-cyclopropoxy-2-methylphenyl)piperidin-1-yl)-2-methyl-1-propanol], the pIC50 is 7.39. Against the preceding compound, the pIC50 is 0.68 log units higher.

`Cc1cc(Nc2ncc(Cl)c(Nc3cn(C)nc3S(=O)(=O)C(C)C)n2)c(OC2CC2)cc1C1CCN(CCF)CC1` [Final product 145, 5-chloro-N^2-[2-cyclopropoxy-4-(1-(2-fluoroethyl)piperidin-4-yl)-5-methylphenyl]-N^4-[1-methyl-3-(isopropylsulfonyl)-1H-pyrazol-4-yl]-pyrimidin-2,4-diamine]: the pIC50 is 7.27.

Take `Cc1cc(Nc2ncc(Cl)c(Nc3cn(C)nc3S(=O)(=O)C(C)C)n2)c(OC2CC2)cc1[C@H]1CC[C@H](NCCN(C)C)CC1` [Final product 200]: the pIC50 was 6.68.

`CCOc1cc(C2CCN(C(C)(C)CO)CC2)c(C)cc1Nc1ncc(Cl)c(Nc2cn(C)nc2S(=O)(=O)C(C)C)n1` [Final product 150]: the pIC50 was 7.37.

Compound `COc1cc(C2CCN(C)CC2)c(C)cc1Nc1ncc(Cl)c(Nc2cn(C)nc2S(=O)(=O)C(C)C)n1` [Final product 64] had a pIC50 of 7.51.

In turn, `Cc1cc(Nc2ncc(Cl)c(Nc3cn(C)nc3S(=O)(=O)C(C)C)n2)c(OC2CC2)cc1C1CCC(N2CCCC2)CC1` (stereo not drawn) [Final product 201] had a negative-log IC50 (pIC50) of 6.83.
